Active and inactive are the calls of the source. The rule behind the calls is not given here.
What was measured:
[1] = system: Cytotoxicity; test: inhibitors of PAF-induced NFkB signaling in CF airway cells, dose response, cell-based, uHTS hits, panel, cytotoxicity readout (AID 624344); details: CF bronchial epithelial cells, mean of runs
[2] = as above; details: CF bronchial epithelial cells, PAF-induced NFkB reporter inhibition; with PAF, mean of runs

Structure (SMILES)	IC50 [1]	IC50 [2]
COc1ccc2[nH]c3c(c2c1)CCN1C(=O)C(CC(=O)NCCC2=CCCCC2)C[C@H](C(=O)N2CCCCC2)[C@@]31CCc1ccccc1 (some centres not stated)	44.1 µM	8.09 µM
COc1ccc2c(c1OC)C(=O)OC2Nc1nc(-c2ccccc2)cs1 (configuration not stated)	32.7 µM	0.66 µM
Nc1nc(N)nc(-c2ccc(Cl)c(Cl)c2)n1	20.3 µM	2.78 µM
COc1ccc(Nc2nc(-c3cccs3)nc3ccccc23)cc1S(=O)(=O)N1CCOCC1	8.98 µM	3.78 µM
CS(=O)(=O)c1ccc2nc(NC(=O)CCS(=O)(=O)c3ccccc3)sc2c1	> 79 µM (inactive)	4.88 µM
O=C(Nc1ccccc1)Nc1ncc([N+](=O)[O-])s1	12.6 µM	2.73 µM
CC(=O)Nc1ccc(-c2ccnc3c2CC(C(=O)NCc2ccccc2)O3)cc1 (configuration not stated)	> 79 µM (inactive)	> 79 µM (inactive)
CCOC(=O)C1=C(C)Nc2ccccc2N=C1NC(=O)c1oc2ccccc2c1COC	30.1 µM	4.25 µM
COc1cc(CN(C)c2ccc(S(=O)(=O)N3CCCC3)cn2)ccc1OC(F)F	> 79 µM (inactive)	0.453 µM
O=C(NCc1ccco1)c1nc2c(nnn2Cc2ccccc2Cl)c(=O)[nH]1	5.1 µM	1.46 µM
CCOc1ccc(-n2c(C)c(C(C)=O)c3cc(OC(C)=O)ccc32)cc1	44.5 µM	0.925 µM
COc1ccccc1Cn1c(=O)c2ccccc2n2c(Sc3ncnc4sccc34)nnc12	5.9 µM	3.9 µM
O=C(OC1CCOC1=O)c1ccccc1C(=O)c1ccc(Cl)c([N+](=O)[O-])c1 (configuration not stated)	7.46 µM	4.44 µM
O=C(Nc1ccc(Br)c2ccccc12)c1ccc2ccccc2c1O	2.38 µM	1.93 µM
CC1CCCCN1c1ncnc(N)c1[N+](=O)[O-] (configuration not stated)	> 79 µM (inactive)	3.66 µM
COc1ccc(-c2cn[nH]c2-c2ccc(OC)cc2O)cc1	46.4 µM	2.92 µM
C[C@@H]1CN([C@H](C)CO)C(=O)c2cc(NC(=O)Nc3ccc(C(F)(F)F)cc3)ccc2O[C@H]1CN(C)S(=O)(=O)c1cccs1	54.9 µM (inactive)	5.41 µM
CN1CCN(c2ncnc3scc(-c4ccccc4Cl)c23)CC1	57.2 µM (inactive)	3.89 µM
Cc1ccc2c(c1)C(=O)C(=O)N2Cc1ccc(C(F)(F)F)cc1	> 79 µM (inactive)	inactive
CNC(=O)COC(=O)c1ccccc1C(=O)c1ccc(Cl)c([N+](=O)[O-])c1	3.7 µM	1.01 µM
Cc1nn(-c2ccccn2)c2c1-c1nc(N)ncc1CC2	65.3 µM (inactive)	6.76 µM

Structure (SMILES)	IC50 [1]	IC50 [2]
COc1cccc(-c2cc(NC=O)c3ncc(-c4ccc(C(C)=O)cc4)n3c2)c1	37.2 µM	11.8 µM
CN(C)c1ccc(Nc2ncnc3ccc(Br)cc23)cc1	15.9 µM	1.66 µM
Cc1c(C(=O)OC2CCCC2)[nH]c2c1C(=O)CC(c1ccco1)C2 (configuration not stated)	46.3 µM	inactive
COc1ccc2cc(C(N)=O)c(=Nc3ccc(C)cc3)oc2c1	13.3 µM	2.58 µM
CCOc1cc(Br)c(Br)c(C=Nc2ccc(NC(C)=O)cc2)c1O	> 79 µM (inactive)	3.91 µM
Oc1ccc(Nc2ncnc3scc(-c4ccccc4)c23)cc1	48.7 µM	12.6 µM
CN(C)c1ccc(-c2nn3c(-c4ccccc4Cl)nnc3s2)cc1	> 79 µM (inactive)	19.2 µM
CC(=O)Oc1c(Cl)cc(N(C(C)=O)S(=O)(=O)c2ccccc2)c2ccccc12	8.93 µM	7.68 µM
CCCCCCCCCCCCCCC(O)C[N+](C)(CCO)CCO (configuration not stated)	5.47 µM	4.61 µM
COc1ccc2c(c1OC)C(=O)N1c3ccccc3C(=O)N(c3ccccc3)C21 (configuration not stated)	2.94 µM	0.902 µM
O=C(c1ccccc1)C1OC1C(=O)c1ccccc1 (configuration not stated)	54.5 µM (inactive)	6.25 µM
Cn1ncc2c(O/N=C(\N)c3ccc(C(C)(C)C)cc3)ncnc21	34.9 µM	8.28 µM
CC(=O)Nc1ccc(NC(=O)c2nc(S(=O)(=O)Cc3cccc(C)c3)ncc2Cl)cc1	11.5 µM	5.98 µM
Clc1ccc(Cn2ncc3c(N4CCN(c5ccccc5)CC4)ncnc32)cc1	5.17 µM	4.7 µM
CCN(CC)CCNC(=O)c1ccc(NC(=O)C2CCN(c3ncnc4sc(C)c(C)c34)CC2)cc1	16.1 µM	6.33 µM
Cc1ccc(S(=O)(=O)Nc2nc3ccccc3nc2Nc2cccc(S(=O)(=O)N3CCCC3)c2)cc1	41.3 µM	3.57 µM
Oc1ccc(C[C@H]2CNC(=S)N2CC2CCCN2C[C@H](Cc2ccc(O)cc2)N2C[C@H](Cc3ccc(O)cc3)N(CC3CCCCC3)C2=S)cc1 (some centres not stated)	15.4 µM	10.3 µM
OCCNc1nc(Nc2ccc(Cl)c(Cl)c2)nc2ccccc12	4.07 µM	2.16 µM
CCOC(=O)Nc1nc(-c2ccccc2)c(C(=O)c2ccccc2)s1	> 79 µM (inactive)	14.3 µM
COc1ccc2c(c1)[nH]c1c(C)nccc12	> 79 µM (inactive)	3.77 µM

Source: PubChem BioAssay AID624344 (Sanford-Burnham Center for Chemical Genomics, 2012)
